Data on 1 compound can be found in US20250025473A1 (priority 2021, published 2025).

Data set [1] concerns VSV-S (VSV pseudotyped with SARS-CoV-2 spike protein). The format is cell-based.
The target of the next data set is PKA (Homo sapiens, UniProt P17612). Kind of data set: HotSpot in vitro kinase assay, PKA.
Another data set concerns the target T1, panel of 393 kinases (Homo sapiens, UniProt Q15119).
T1 construct: purchased Reaction Biology Corporation
The experiment in a line: biochemical. The following applies: CIMSS 10 μM, 10 μM ATP.

The next data set has as its system intracellular Ca2+. Kind of data set: Calcium kinetic measurements (Fura-2) after HSV exposure. The conditions noted are these: 10 μM, HaCat. The format is cell-based, human. The procedure: The cells were then washed, lysed and Western blots of cell lysates prepared and probed with a mAb to gD as a marker of cell-bound virus and anti-3-actin as a loading control. […] Representative responses are shown for the first 30 minutes (left) and the mean calcium released over the first 3 minutes and then the extended response in the first hour following viral exposure were calculated from 4 wells in 3 independent experiments, each containing 5×10^4 cells (right). Asterisks indicate statistically significant differences by ANOVA (*, p<0.05, ** p<0.01, *** p<0.001) relative to control cells (mock-infected, DMSO). […] Nuclei were stained blue with DAPI. Images are representative of 2 independent experiments. […] Nuclei are stained blue (DAPI). Images were obtained with ZeissLive/DuoScan (objective 100×1.4, bar=10 μm) are representative of 2 independent experiments; quantification is shown in FIG. 11.
The cells were then transferred to SpectraMax® MF^e temperature-regulated chamber at 37° C. […] An intracellular calibration was performed with each experiment by determining the fluorescence ratio (340:380) in the presence of Ca-free 10 mM K2EGTA buffer (Rmin) and 10 mM CaEGTA buffer containing 10 μM ionomycin (Rmax) (C-3008, Calcium Calibration Buffer Kit #1, Invitrogen Molecular Probes™).

The next data set has as its system PLSCR1. The experiment in a line: PLSCR1 phosphorylation after HSV-2 (immunoprecipitation/Western). The format is cell-based, human. The conditions noted are these: 10 μM, HaCat, 30 minutes.
In the next data set the target is T2, AKT2 (Homo sapiens, UniProt P31751).
T2 construct: purchased Reaction Biology Corporation
T2 sequence (P31751 whole entry): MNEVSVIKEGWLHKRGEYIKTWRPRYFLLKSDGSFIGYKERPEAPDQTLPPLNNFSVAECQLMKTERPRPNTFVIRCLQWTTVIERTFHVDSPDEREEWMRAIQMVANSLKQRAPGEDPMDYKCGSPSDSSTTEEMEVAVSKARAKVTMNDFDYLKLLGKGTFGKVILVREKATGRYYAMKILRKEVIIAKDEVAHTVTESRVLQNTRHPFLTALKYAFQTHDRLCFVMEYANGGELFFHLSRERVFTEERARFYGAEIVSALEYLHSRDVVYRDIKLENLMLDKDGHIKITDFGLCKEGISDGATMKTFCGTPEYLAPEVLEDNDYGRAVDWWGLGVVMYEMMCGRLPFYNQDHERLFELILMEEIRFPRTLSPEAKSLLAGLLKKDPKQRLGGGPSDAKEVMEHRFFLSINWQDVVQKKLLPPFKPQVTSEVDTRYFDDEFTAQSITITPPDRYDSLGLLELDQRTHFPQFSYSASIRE
Kind of data set: HotSpot in vitro kinase assay, AKT2. The format is biochemical.

Data set [2] relates to primary vaginal epithelial cells. The experiment in a line: Proliferation and viability, primary vaginal epithelial cells. The conditions noted are these: 10 or 50 μM, about 50% confluent primary vaginal epithelial cells, up to 120 h. The format is cell-based, human. On the procedure: Results are presented as mean±SEM odu as a percentage of the DMSO control (n=2 independent experiments each conducted in duplicate for C and 1 experiment conducted in duplicate for D). Results in B-D were compared by ANOVA, *p<0.05, **p<0.01, ***p<0.001, ****p<0.0001).
Cell proliferation and viability were determined using the Cell Titer 96® Aqueous One Solution and optical density was determined using a SpectraMax® M5e Molecular Devices multidetection microplate reader. […] The cells were then fixed and stained for activated caspases (red) and SYTOX Green (for integrity of plasma membrane) by Image-iT™ LIVE red Poly Caspase Detection kit. Nuclei were stained with Hoechst. Images were acquired by laser confocal microscope ZeissLive/DuoScan equipped with oil immersion objectives 63×1.1 and captured in an optical slice of 0.37 μm with appropriate filters. Alternatively, immunoblots were prepared and probed with antibodies to cleaved PARP-1 or cleaved caspase 8.

The target of another data set is EGFR (Homo sapiens, UniProt P00533). The experiment in a line: HotSpot in vitro kinase assay, EGFR. The following applies: read-out: Compound IC50, EGFR; in vitro kinase activity.
Sequence of EGFR (P00533 25-1210): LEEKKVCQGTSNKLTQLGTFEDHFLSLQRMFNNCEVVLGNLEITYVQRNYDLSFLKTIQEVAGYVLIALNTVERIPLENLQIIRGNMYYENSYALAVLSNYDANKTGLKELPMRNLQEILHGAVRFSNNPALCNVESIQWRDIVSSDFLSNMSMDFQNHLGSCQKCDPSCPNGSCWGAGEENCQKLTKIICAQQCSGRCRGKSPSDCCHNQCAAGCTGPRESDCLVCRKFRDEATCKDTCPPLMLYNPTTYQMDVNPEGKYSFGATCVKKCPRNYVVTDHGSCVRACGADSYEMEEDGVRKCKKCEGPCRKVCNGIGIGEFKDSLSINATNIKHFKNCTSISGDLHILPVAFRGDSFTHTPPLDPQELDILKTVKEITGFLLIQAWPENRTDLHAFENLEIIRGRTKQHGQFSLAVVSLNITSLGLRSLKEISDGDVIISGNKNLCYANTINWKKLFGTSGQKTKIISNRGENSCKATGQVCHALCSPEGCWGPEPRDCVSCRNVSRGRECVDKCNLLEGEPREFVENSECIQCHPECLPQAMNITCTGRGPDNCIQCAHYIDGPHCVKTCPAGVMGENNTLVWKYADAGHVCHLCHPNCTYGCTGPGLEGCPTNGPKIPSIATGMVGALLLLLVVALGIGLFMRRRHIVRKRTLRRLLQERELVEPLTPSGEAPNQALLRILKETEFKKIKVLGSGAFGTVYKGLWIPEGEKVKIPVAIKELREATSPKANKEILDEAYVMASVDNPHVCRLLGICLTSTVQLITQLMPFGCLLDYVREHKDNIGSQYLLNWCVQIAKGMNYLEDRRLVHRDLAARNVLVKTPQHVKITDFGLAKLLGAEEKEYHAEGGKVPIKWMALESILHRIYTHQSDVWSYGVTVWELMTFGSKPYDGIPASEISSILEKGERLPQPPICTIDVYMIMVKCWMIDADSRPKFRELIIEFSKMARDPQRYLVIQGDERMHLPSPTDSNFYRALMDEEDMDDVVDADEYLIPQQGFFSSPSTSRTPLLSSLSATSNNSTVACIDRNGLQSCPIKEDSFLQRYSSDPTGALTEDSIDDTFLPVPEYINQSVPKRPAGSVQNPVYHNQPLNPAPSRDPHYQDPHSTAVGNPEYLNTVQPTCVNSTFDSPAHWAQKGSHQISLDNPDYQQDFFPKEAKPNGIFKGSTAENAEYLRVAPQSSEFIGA

Each structure is given as a SMILES string. Where two headings read alike, the source gives them in different places.

For `CO[C@@H]1[C@H](N(C)C(=O)CCC(=O)NCc2cn(CCCS(=O)(=O)[O-])nn2)C[C@H]2O[C@]1(C)n1c3ccccc3c3c4c(c5c6ccccc6n2c5c31)C(=O)NC4.[Na+]` [CIMSS], the “VSV-S infection (plaques or viral yields)” value in data set [1] is given as “inhibited”. The “VSV-S infection, percentage of GFP+ cells” value in data set [1] is recorded as “significantly reduced”. Moreover, the “fold less effective than staurosporine (IC50), PKA” value at PKA is roughly 46 fold. The IC50 – broadly, the point on the concentration scale where inhibition reaches its midpoint – on PKA (read-out: Compound IC50, PKA, in vitro kinase activity) stood at 42.3 nM; on AKT2 (in vitro kinase activity, read-out: Compound IC50, AKT2) it was 1000 nM; on EGFR, 1610 nM. For the same compound, the remaining activity at 10 µM on panel of 393 kinases (read-out: % Enzyme Activity (relative to DMSO controls) CIMSS (10 μM) Data 1, kinase PDK2/PDHK2, Data 1) amounted to 95.5%; on panel of 393 kinases (read-out: % Enzyme Activity (relative to DMSO controls) CIMSS (10 μM) Data 2, kinase PDK2/PDHK2, Data 2) it was 94%. Moreover, the “extended Ca2+ release (first hour pi)” value with intracellular Ca2+ was “significant reduction”. Moreover, the “initial Ca2+ transient (first three minutes following HSV exposure)” value in the data set on intracellular Ca2+ is recorded as “did not block”. Moreover, the “phosphorylation of PLSCR1 after HSV-2” value with PLSCR1 is listed as “not”. The inhibition – broadly, the share of the control response that was lost under treatment – at 10 µM at AKT2 (read-out: inhibition of Akt2) is greater than 75%. For the same compound, the cytotoxicity entry in data set [2] was “little or no cytotoxicity”.
